Assay results: patent US11952364B2, “TRK inhibitors useful as anticancer drugs” (TYLIGAND BIOSCIENCE (SHANGHAI) LIMITED, priority 2018, dated 2024)

Columns and labels:
Ba/F3 ETV6-NTRK2 cells = assay: Proliferation of Ba/F3 ETV6-NTRK2 cells (CellTiter-Glo); assay type: cell-based; conditions: Mus musculus, BaF3; Table 2; 72 hours
Text: Ba/F3 ETV6-NTRK2 cell is a stable transgenic cell line constructed by KYinno Biotechnology Co., Ltd. on mouse primary B cell Ba/F3 wherein NTRK2 is highly expressed and fused with ETV6 to form ETV6-NTRK2. • [Test method]: Promega's CellTiter-Glo® Luminescent Cell Viability Assay kit was used to evaluate the inhibitory activity of the compounds on the proliferation of Ba/F3 ETV6-NTRK2C cells. • [Instrument]: Spectramax M3 multifunctional microplate reader from Molecular Devices. • [Test materials]: Ba/F3 ETV6-NTRK2 cell line (constructed by KYinno Biotechnology Co., Ltd. (Beijing)), 96-well transparent flat-bottomed black-walled cell culture plate (Corning, cat #3603), RPMI-1640 media (GE, cat #SH30027.01), fetal bovine serum FBS (Thermo Fisher, cat #10099-141), CellTiter-Glo® Luminescent Cell Viability Assay kit (Promega, cat #G7572), PBS (Solarbio, cat #P1020), DMSO (Sigma, cat #D2650). • [Experimental procedure]: When resuscitating Ba/F3 ETV6-NTRK2 cells, the freezing tube was quickly shaken in a 37° C. water bath to melt within 1 minute. The thawed cell suspension was mixed uniformly with RPMI1640 medium containing 10% FBS, centrifuged at 1000 rpm for 5 minutes, and the supernatant discarded. 5 mL of complete medium (RPMI1640 medium with 10% FBS) was taken to resuspend the cell pellets, charged into a cell culture flask with a bottom area of 25 cm^2, and incubated in a cell incubator at 37° C., 95% humidity and 5% CO2. Cells were allowed to passage when the number of cells reached about 10^6 cells/mL. For cell passage, the old cell suspension was directly pipetted evenly, 1/5 of the cell suspension was kept, 4 mL of new complete medium was added, and after pipetting evenly, the cell flask was placed in the cell incubator for further culturing. Cell plating was performed when the number of cells reached about 10^6 cells/mL again. For cell plating, 1/5 of the cell suspension was kept for further culturing as in the cell passage method, and the remaining 4/5 of the cell suspension was placed in a 15 mL centrifuge tube, detected for cell viability by Trypan blue exclusion method to ensure that cell viability was above 90%. A cell suspension with a density of 5.56×10^4 viable cells/mL was prepared with complete medium, and 90 μL of such cell suspension was added to a 96-well cell culture plate to obtain a cell density of 5000 viable cells/mL in the cell culture plate. A control group containing no cells, no compound and only complete medium (i.e, culture medium control) and a control group containing no compound but containing cells (i.e, cell control) were set. The cell plate was placed in a cell incubator overnight. The 10 mM compound stock solution in DMSO was first serially diluted with DMSO at a dilution factor of 3.16 times, to obtain 9 concentrations, and the 10th concentration was set as DMSO control without compound. Then, PBS was used to dilute the DMSO solutions of compounds of different concentrations, at a dilution factor of 100 times, so that the DMSO concentration in the compound solution of each concentration was 1%. Finally, 10 μL of each of the above solutions was added to the corresponding cell culture plate, so that the initial compound concentration was 10 μM, with the remaining concentrations being successively diluted at a dilution factor of 3.16 times, and the DMSO content in the cell culture plate was 0.1%. The cell plate was placed in a cell incubator and cultured for 72 hours. For endpoint detection, the CellTiter-Glo reagent was melted, and the cell plate was moved to room temperature to equilibrate for 30 minutes, added with 100 μL of CellTiter-Glo for each well, and shaken on an orbital shaker for 5 minutes to fully lyse the cells. The plate was kept at room temperature for 20 minutes to stabilize the luminescence signal, and the luminescence value of each well was scanned with a multi-functional microplate reader at full wavelength. • [Test sample]

MKN45 cells = assay: Proliferation of MKN45 cells; assay type: cell-based; conditions: Homo sapiens, MKN-45; Table 8
Method: MKN45 is a human poorly differentiated gastric cancer cell line with high MET expression. Cell proliferation experiments were performed according to literature methods (Zhang, D. et al. Bioorg. Med. Chem. 2013, 21, 6804; Riss, T. L.; Moravec, R. A.; Niles, A. L.; et al. Cell Viability Assays 2013 May 1 [Updated 2016 Jul. 1]. In: Sittampalam, G. S.; Grossman, A.; Brimacombe, K.; et al., editors. Assay Guidance Manual [Internet]. Bethesda (MD): Eli Lilly & Company and the National Center for Advancing Translational Sciences; 2004-. Available from: https://www.ncbi.nlm.nih.gov/books/NBK144065/).

Row | SMILES | IC50 (Ba/F3 ETV6-NTRK2 cells) [nM] | IC50 (MKN45 cells) [nM]
1 | O=C(Nc1cnn2ccc(N3CCC[C@@H]3c3cc(F)ccc3F)nc12)N1CC[C@H](O)C1 [LOXO-101, Larotrectinib, reference compound] | 69 | > 10000
2 | CCn1ncc2cc(Oc3ccc(NC(=O)c4ccc(C)n(-c5ccc(F)cc5)c4=O)cc3F)c(-c3cn[nH]c3)cc21 [Example 3, N-(3-fluoro-4-(1-ethyl-6-(1H-pyrazol-4-yl)-1H-indazol-5-yloxy)phenyl)-1-(4-fluorophenyl)-6-methyl-2-oxo-1,2-dihydmpyridine-3-carboxamide] | 341 | 
3 | CCOc1ccc(C(=O)Nc2ccc(Oc3cc4cnn(C)c4cc3-c3cn[nH]c3)c(F)c2)c(=O)n1-c1ccc(F)cc1 [Example 14, N-(3-fluoro-4-(1-methyl-6-(1H-pyrazol-4-yl)-1H-indazol-5-yloxy)phenyl)-1-(4-fluorophenyl)-6-ethoxy-2-oxo-12-dihydropyridine-3-carboxamide] |  | 11
4 | Cc1ccc(C(=O)Nc2ccc(Oc3cc4cnn(C)c4cc3-c3cn[nH]c3)c(F)c2)c(=O)n1-c1ccc(F)cc1 [Merestinib, reference compound] | 211 | 19
5 | CSc1ccc(C(=O)Nc2ccc(Oc3cc4cnn(C)c4cc3-c3cn[nH]c3)c(F)c2)c(=O)n1-c1ccc(F)cc1 [Example 11, N-(3-fluoro-4-(1-methyl-6-(1H-pyrazol-4-yl)-1H-indazol-5-yloxy)phenyl)-1-(4-fluorophenyl)-6-methylthio-2-oxo-1,2-dihydropyidine-3-carboxamide] |  | 12
6 | COc1ccc(C(=O)Nc2ccc(Oc3cc4cnn(C)c4cc3-c3cn[nH]c3)c(F)c2)c(=O)n1-c1ccc(F)cc1 [Example 12, N-(3-fluoro-4-(1-methyl-6-(1H-pyrazol-4-yl)-1H-indazol-5-yloxy)phenyl)-1-(4-fluorophenyl)-6-methoxy-2-oxo-1,2-dihydropyridine-3-carboxamide] |  | 4
7 | CCc1ccc(C(=O)Nc2ccc(Oc3cc4cnn(C)c4cc3-c3cn[nH]c3)c(F)c2)c(=O)n1-c1ccc(F)cc1 [Example 5, N-(3-fluoro-4-(1-methyl-6-(1H-pyrazol-4-yl)-1H-indazol-5-yloxy)phenyl)-1-(4-fluorophenyl)-6-ethyl-2-oxo-1,2-dihydropyridine-3-carboxamide] | 128 | 

More lines, now with the values ahead:

Row | IC50 (Ba/F3 ETV6-NTRK2 cells) [nM] | IC50 (MKN45 cells) [nM] | SMILES
8 | 428 |  | Cn1ncc2cc(Oc3ccc(NC(=O)c4ccc(C(F)(F)F)n(-c5ccc(F)cc5)c4=O)cc3F)c(-c3cn[nH]c3)cc21 [Example 1, N-(3-fluoro-4-(1-methyl-6-(1H-pyrazol-4-yl)-1H-indazol-5-yloxy)phenyl)-1-(4-fluorophenyl)-6-trifluoromethyl-2-oxo-1,2-dihydmpyridine-3-carboxamide monomethanesulfonate]
9 | 876 |  | Cc1ccc(C(=O)Nc2ccc(Oc3cc4cnn(C(C)C)c4cc3-c3cn[nH]c3)c(F)c2)c(=O)n1-c1ccc(F)cc1 [Example 4, N-(3-fluoro-4-(1-isopropyl-6-(1H-pyrazol-4-yl)-1H-indazol-5-yloxy)phenyl)-1-(4-fluorophenyl)-6-methyl-2-oxo-1,2-dihydmpyridine-3-carboxamide]
10 | 209 |  | CC(C)c1ccc(C(=O)Nc2ccc(Oc3cc4cnn(C)c4cc3-c3cn[nH]c3)c(F)c2)c(=O)n1-c1ccc(F)cc1 [Example 6, N-(3-fluoro-4-(1-methyl-6-(1H-pyrazol-4-yl)-1H-indazol-5-yloxy)phenyl)-1-(4-fluorophenyl)-6-isopropyl-2-oxo-1,2-dihydropyridine-3-carboxamide]
11 | 269 |  | Cn1ncc2cc(Oc3ccc(NC(=O)c4ccc(C5CC5)n(-c5ccc(F)cc5)c4=O)cc3F)c(-c3cn[nH]c3)cc21 [Example 2, N-(3-fluoro-4-(1-methyl-6-(1H-pyrazol-4-yl)-1H-indazol-5-yloxy)phenyl)-1-(4-fluorophenyl)-6-cyclopropyl-2-oxo-1,2-dihydmpyridine-3-carboxamide]
12 |  | 9 | CC(C)Oc1ccc(C(=O)Nc2ccc(Oc3cc4cnn(C)c4cc3-c3cn[nH]c3)c(F)c2)c(=O)n1-c1ccc(F)cc1 [Example 16, N-(3-fluoro-4-(1-methyl-6-(1H-pyrazol-4-yl)-1H-indazol-5-yloxy)phenyl)-1-(4-fluorophenyl)-6-isopropoxy-2-oxo-1,2-dihydropyridine-3-carboxamide]
